Entries after “also recorded” stand apart in the source; their conditions may differ. Where two headings read alike, the source gives them in different places.
What was measured:
Type in all cases: in vivo, human
[1] = Ketoconazole PK after a 400 mg single dose on Day 8 of mifepristone 300 or 600 mg OD (Example 2)
Excerpt: (§1) Subjects were discharged on Day 11.
(§2) Subjects were discharged on Day 11. Subjects in both cohorts returned to study center on Day 13 for safety monitoring, collection of the 120-hour PK draw, and completion of the Termination Visit procedures, followed by discharge from the study. To the extent possible, any adverse events deemed study drug-related and that were ongoing at the time of discharge from the study were followed-up to resolution or until a determination was made that the unresolved event was stable.
(§3) DURATION OF TREATMENT: Up to a total of 28 days, including up to 2 weeks screening, dosing on Days 1-8, safety observation, and PK sample collection through Day 13.
(§4) Descriptive statistics count, mean, median, standard deviation, minimum, maximum, and % coefficient of variation) were provided. Ketoconazole concentrations were listed and summarized. GM means of Cmax and total AUC were compared for the single dose in this study to the combined data of reported 400 mg single doses of ketoconazole of healthy subjects from the literature.

[2] = Effect of co-administration with mifepristone on ketoconazole PK (Example 3); conditions: Test: Day 17, 600 mg mifepristone OD + 200 mg ketoconazole BID; Reference: Day -1, 200 mg ketoconazole single dose
Experimental: (§5) A single dose of ketoconazole was administered on Day −1.
(§6) The study was a two period study design.

[3] = Safety assessment: adverse events, laboratory tests, ECG (Example 1); conditions: for TEAEs considered by the investigator to be related to the drug: Example 1
Experimental: (§7) Subjects in both cohorts returned to the study center on Day 15 for safety monitoring, and completion of the Termination Visit procedures, followed by discharge from the study. Safety was assessed by spontaneously reported adverse events, physical examinations, and routine clinical laboratory tests. To the extent possible, any adverse events deemed study drug-related and that were ongoing at the time of discharge from the study were followed-up to resolution or until a determination is made that the unresolved event was stable.

[4] = Cross-study comparison of exposure to mifepristone and metabolites with historic 1200 mg OD mifepristone study (Example 3)
[5] = Effect of ketoconazole 200 mg BID on PK of mifepristone 600 mg OD and metabolites, with food (Example 3)
Experimental: as §5, §6

[6] = Effect of a 400 mg single dose of ketoconazole on PK of an 8-day regimen of 300 mg or 600 mg OD mifepristone, moderate fat breakfast (Example 2)
Experimental: This was an open-label study in healthy male subjects. […] The 400 mg single dose of ketoconazole was given to all subjects on day 8.
METHODOLOGY: Twelve subjects were enrolled, six in Cohort 1 and 6 in Cohort 2.
as §1, §2
DIAGNOSIS AND MAIN […] FOR INCLUSION: Healthy male volunteers between the ages of 18 to 45 years of age with a body mass index (BMI) ranging between 19 and 32 kg/m2 and a weight of at least 60 kg (132 lbs) were enrolled. Subjects had no clinically significant abnormal findings on the physical examination, ECG, blood pressure, heart rate, medical history, or clinical laboratory results during screening. The QTc interval at screening was less than 450 msec.
as §3, §4

[7] = Liver function of a patient with excess cortisol on ketoconazole plus reduced mifepristone dose (Examples 4-7); conditions: concomitant ketoconazole
[8] = Safety: adverse events, laboratory tests, vital signs, ECG (Example 3); conditions: mifepristone 600 mg OD Days 1-17, ketoconazole 200 mg BID Days 13-17
[9] = Safety assessment: adverse events, physical examinations, laboratory tests (Example 2)
Experimental: Safety was assessed by spontaneously reported adverse events, physical examinations, and routine clinical laboratory tests. Adverse event data were tabulated. Physical findings and laboratory test results were listed by subject.

[10] = Effect of oral ketoconazole 400 mg OD or 200 mg BID on plasma pharmacokinetics of a 300 mg single dose of mifepristone, fasted (Example 1); conditions: for AUC: male, human, plasma, oral, read-out: AUCtot (mean)
Excerpt: This study was an open-label study in healthy male subjects.
Healthy male volunteers between the ages of 18 to 45 years of age with a body mass index (BMI) ranging between 19 and 32 kg/m2 and a weight of at least 60 kg (132 lbs) were enrolled. Subjects had no clinically significant abnormal findings on the physical examination, ECG, blood pressure, heart rate, medical history, or clinical laboratory results during screening. The QTc interval at screening was less than 450 msec.
In cohort 1, six subjects received ketoconazole 400 mg OD for 14 days.
Subjects remained in the clinic on Days 2 and 3 to receive 400 mg OD oral ketoconazole fasted, and for safety evaluation and collection of blood pharmacokinetic (PK) samples. Subjects were discharged from the clinic on Day 4 following administration of 400 mg OD oral ketoconazole fasted, and returned to the clinic the mornings of Days 5 through 13 to receive 400 mg OD oral ketoconazole fasted.
In cohort 2, six subjects received ketoconazole 200 mg BID for 14 days. […] All 12 subjects completed the study. Cohort 2 subjects participated in a Screening visit to assess eligibility and a check-in Day (Day −1) during which eligibility was re-confirmed. […] The evening of Day 1, subjects received 200 mg oral ketoconazole. Subjects remained in the clinic on Days 2, 3 and 4 to receive 200 mg BID oral ketoconazole, and for safety evaluation and collection of blood pharmacokinetic (PK) samples. Subjects were discharged from the clinic on Day 4 following evening administration of 200 mg oral ketoconazole, and returned to the clinic the morning and evening of Days 5 through 13 to receive 200 mg BID oral ketoconazole. Morning doses of ketoconazole on Days 0-13 were administered in the fasted state.
as §7
Descriptive statistics (count, mean, median, standard deviation, minimum, maximum, and % coefficient of variation) were provided. […] Comparisons with previous study data were made.

[11] = single 400 mg ketoconazole dose on Day 8
[12] = Test: present study Day 17, 600 mg mifepristone OD + 200 mg ketoconazole BID, Reference: historic study Day 7, 1200 mg mifepristone OD alone, after 34% fat meal
[13] = 900 mg mifepristone daily with inhibition of CYP3A (extrapolated from 600 mg data)
[14] = Test: Day 17, 600 mg mifepristone OD + 200 mg ketoconazole BID, Reference: Day 12, 600 mg mifepristone OD
[15] = Cohort 2 (600 mg OD), between Day 7 and Day 8
[16] = MIFE 300 mg single dose fasted, C1: Keto 400 mg OD

**Q.** With CC(=O)N1CCN(c2ccc(OCC3COC(Cn4ccnc4)(c4ccc(Cl)cc4Cl)O3)cc2)CC1 (stereo not shown) [Ketoconazole, 1-acetyl-4-[4-[[2-(2,4-dichlorophenyl)-2-[(1H-imidazol-1-yl)-methyl]-1,3-dioxolan-4-yl]methoxy]phenyl]piperazine] as the molecule, how does the “ketoconazole half-life on either mifepristone regimen” value ([1]; single 400 mg dose on Day 8, mifepristone 300 vs 600 mg OD) read?
**A.** not appreciably different

**Q.** What about the “ketoconazole AUCinf higher on 600 mg OD relative to 300 mg OD mifepristone regimen” value [1, 11] of the same molecule?
**A.** 36%

**Q.** What about the “ketoconazole Cmax higher on 600 mg OD relative to 300 mg OD mifepristone regimen” value [1, 11] of the same molecule?
**A.** 37%

**Q.** What about the “Ratio % Test/Reference, AUC (geometric mean ratio)” value [2] of the same molecule?
**A.** 365.36%

**Q.** What about the “Ratio % Test/Reference, Cmax (geometric mean ratio)” value [2] of the same molecule?
**A.** 252.71%

**Q.** What about the “TEAEs considered by the investigator to be related to the drug” value [3] of the same molecule?
**A.** One TEAE of insomnia

**Q.** Which results are given for CC#C[C@]1(O)CC[C@H]2[C@@H]3CCC4=CC(=O)CCC4=C3[C@@H](c3ccc(N(C)C)cc3)C[C@@]21C [Mifepristone, 11β-(4-dimethylaminophenyl)-17β-hydroxy-17α-(1-propynyl)-estra-4,9-dien-3-one]?
**A.** exposures as share of those following the highest labeled dose of mifepristone (1200 mg daily) ([4]; 600 mg mifepristone OD + 200 mg ketoconazole BID): approximately 85%; Ratio % Test/Ref, AUC0-24 (geometric mean ratio) [4, 12]: 87.27%; Ratio % Test/Ref, Cmax (geometric mean ratio) [4, 12]: 84.64%; mifepristone exposure less than that of 1200 mg mifepristone in the absence of ketoconazole ([4]; mifepristone 600 mg co-administered with ketoconazole): 13-15%; corresponding increase in mifepristone AUC [5, 13]: 38.01%; corresponding increase in mifepristone Cmax [5, 13]: 27.59%; concentrations on Day 17 compared with Day 12 ([5]; Day 17: mifepristone 600 mg daily + ketoconazole 200 mg twice daily, Day 12: mifepristone alone): higher; Ratio % Test/Reference, AUC0-24 (geometric mean ratio) [5, 14]: 138.01%; Ratio % Test/Reference, Cmax (geometric mean ratio) [5, 14]: 127.59%; effect of co-administration with ketoconazole on exposure ([5]; mifepristone 600 mg OD + ketoconazole 200 mg BID): increased; increase in AUC0-24 [6, 15]: 28%; increase in Cmax [6, 15]: 39%; AUC0-24 at 600 mg OD greater than at 300 mg OD ([6]; Day 7 without ketoconazole): 48%; Cmax at 600 mg OD greater than at 300 mg OD ([6]; Day 7 without ketoconazole): 42%; AUC0-24 at 600 mg OD greater than at 300 mg OD ([6]; Day 8 with 400 mg ketoconazole): 52%; Cmax at 600 mg OD greater than at 300 mg OD ([6]; Day 8 with 400 mg ketoconazole): 65%; half-life at 600 mg OD greater than at 300 mg OD ([6]; Day 8 with 400 mg ketoconazole): 13%; AUCt (AUC0-24 hours, mean) ([6]; MIFE 300 mg/d C1 Day 7, no ketoconazole): 37.734 µg·h/mL; Cmax (mean) ([6]; MIFE 300 mg/d C1 Day 8, 400 mg Keto single dose): 3240 ng/mL; liver function of the patient ([7]; mifepristone reduced from 600 mg to 300 mg daily): not significantly compromised; liver function of the patient ([7]; mifepristone reduced from 900 mg to 600 mg daily): not significantly compromised; liver function of the patient ([7]; mifepristone reduced from 1200 mg to 900 mg daily): not significantly compromised; liver function of the patient ([7]; mifepristone reduced from 1500 mg to 1200 mg daily): not significantly compromised; deaths or SAEs [8]: No deaths or SAEs; severe TEAEs [8]: No severe TEAEs; TEAEs considered possibly or probably related to mifepristone administration ([9]; four subjects in Cohort 2 (600 mg)): dizziness, nausea, vomiting, dry mouth, and rash; SAE ([9]; mifepristone 300 or 600 mg OD 8 days, ketoconazole 400 mg Day 8): No subject experienced an SAE; subjects with at least 1 TEAE ([9]; twelve subjects, mifepristone 300 or 600 mg OD 8 days, ketoconazole 400 mg Day 8): 50%; subjects with at least 1 treatment-emergent adverse event (TEAE) ([3]; 12 subjects, mifepristone 300 mg single dose with ketoconazole for 14 days): 25%; TEAEs considered by the investigator to be related to the drug [3]: No TEAE; serious adverse effect (SAE) ([3]; mifepristone 300 mg single dose with ketoconazole for 14 days): No subject experienced a serious adverse effect (SAE); also recorded: No subject experienced an SAE; geometric mean ratio (GMR) for AUCinf ([10]; Cohort 2 vs Cohort 1): 1.05; geometric mean ratio (GMR) for Cmax ([10]; Cohort 2 vs Cohort 1): 1.15; Mean Ratio Cmax (C2/C1) ([10]; Keto 200 mg BID vs 400 mg OD, MIFE 300 mg single dose): 1.15 ng/mL; T1/2 (mean) [10, 16]: 37.1 h; AUC [10, 16]: 117 µg·h/mL; AUC ([10]; MIFE 300 mg single dose fasted, C2: Keto 200 mg BID): 131 µg·h/mL

— patent US10842800B2, “Concomitant administration of glucocorticoid receptor modulators and CYP3A inhibitors” (Corcept Therapeutics, Inc., priority 2017, dated 2020)
